Experimental data from patent US20220249415A1, “COMPOSITION OF AZELAIC ACID HAVING ADIPOSE TRIGLYCERIDE HYDROLYSIS EFFECT” (Korea University Research and Business Foundation, priority 2018, published 2022).

How the values were obtained:
3T3-L1 adipocytes [1] = assay: Western blot of phosphorylation of CREB and HSL in 3T3-L1 adipocytes; type: cell-based, mouse; conditions: azelaic acid 50 μM, 2 hours, vs control
From the text: When the PKA protein activity is increased by azelaic acid, phosphorylation of target proteins of PKA is increased. Therefore, phosphorylation of cAMP-response element binding protein (CREB) and hormone-sensitive lipase (HSL) known as target proteins of PKA was confirmed by a western blot experiment. […] Primary antibodies used in the experiment were anti-phospho-CREB and anti-phospho-HSL antibodies (Santa Cruz, Calif., U.S.).

HepG2 cells = assay: qPCR of anti-obesity gene in HepG2 cells, with OR2K2 knock-down; type: cell-based, human
Procedure: In-vitro equivalence confirmation: HepG2 cells, which are a human liver tissue cell line, and hAMSC cells, which are a human adipocyte line, were treated with azelaic acid and the anti-obesity gene was measured through a qPCR method.

3T3-L1 adipocytes [2] = assay: Intracellular calcium assay (Fluo-4 Direct) in 3T3-L1 adipocytes; type: cell-based, mouse
Procedure: Therefore, changes in concentrations of cAMP, IP-one (metabolite of IP3), and calcium, which are second messengers by azelaic acid corresponding to the Olfr544 ligand, in 3T3-L1 adipocytes were measured. Since IP3 has low stability to thereby be easily decomposed to IP-one, an amount of intracellular IP-One (metabolite of IP3) was quantified instead of IP3. The concentration of intracellular calcium was measured using a Fluo-4 Direct™ Calcium Assay Kit (Invitrogen, California, U.S.) containing a fluorescent dye for labeling calcium ions. The cultured 3T3-L1 adipocytes were obtained and subjected to centrifugation, and then only pellets were diluted in a Fluo-4 Direct™ calcium assay buffer solution contained in the kit at a concentration of 2.5×10^6 cells/mL. After the resultant was seeded in a 96-well plate and cultured at 37° C. under 5% CO2 conditions for 60 minutes, 50 μL of a 2×Fluo-4 Direct™ calcium reagent loading solution was seeded in the 96-well plate and cultured at 37° C. under 5% CO2 conditions for 30 minutes. Then, fluorescence was measured at excitation and emission wavelengths of 494 nm and 516 nm.

3T3-L1 adipocytes [3] = assay: cAMP assay (ELISA kit) in 3T3-L1 adipocytes; type: cell-based, mouse; conditions: 50 μM azelaic acid, 18 hours
Procedure: Therefore, changes in concentrations of cAMP, IP-one (metabolite of IP3), and calcium, which are second messengers by azelaic acid corresponding to the Olfr544 ligand, in 3T3-L1 adipocytes were measured. Since IP3 has low stability to thereby be easily decomposed to IP-one, an amount of intracellular IP-One (metabolite of IP3) was quantified instead of IP3.
cAMP assay uses the principle to estimate a production amount of cAMP corresponding to a second messenger of a GPCR receptor activated by a ligand using a cAMP standard calibration curve. A 96-well plate included in a cAMP assay ELISA kit (Enzo Life science, New York, U.S.) was coated with a G×R IgG antibody, and after cAMP of a blue solution for obtaining the standard calibration curve was bound to alkaline phosphatase, the color of the blue solution was changed to yellow by a rabbit antibody. When alkaline phosphatase was activated by adding a pNpp substrate to a well bound to cAMP, a color change occurred, such that the concentration of cAMP may be measured at a wavelength of 405 nm using colorimetric analysis. In the present experiment, 1×10^4 3T3-L1 adipocytes were seeded in each well of the 96-well plate and differentiated, and then treated with 50 μM azelaic acid and 1 μM Foskolin corresponding to a positive control for 18 hours. Then, the concentration of cAMP was measured by the method described above.

C57BL/6 mice = assay: Subcutaneous injection in high-fat diet fed male C57BL/6 mice; type: in vivo, mouse; conditions: high-fat diet male C57BL/6 mice, 50 mg/kg subcutaneously, 3.5 weeks
Procedure: After 4 weeks of high-fat diet feeding in male C57BL/6 mice (7-8 per group), 50 mg/kg of azelaic acid was administered subcutaneously for 3.5 weeks, and Saxenda, which is used as an anti-obesity drug, was administered as a positive control.

[4] = reported results of a study; formed in the body; cited from earlier work
3T3-L1 adipocytes [5] = assay: Intracellular cholesterol concentration (Amplex Red kit) in 3T3-L1 adipocytes; type: cell-based, mouse; conditions: azelaic acid 25 or 50 μM
Procedure: In order to confirm whether or not azelaic acid induces triglyceride hydrolysis in adipocytes by activating a cAMP-PKA-HSL signaling pathway, the adipocytes were directly treated with azelaic acid, and concentrations of intracellular lipids were measured. […] Then, a concentration of triglycerides was measured using a TG assay kit (BioVision, California, U.S.) and a concentration of cholesterol was measured using an Amplex Red cholesterol assay kit (Invitrogen, California, U.S.).

protein kinase A (PKA) = assay: PKA kinase activity in 3T3-L1 adipocytes; type: cell-based, mouse; conditions: azelaic acid 50 μM, 2 hours
From the text: A representative protein regulating protein activities associated with signal transduction depending on a change in concentration of intracellular cAMP in the tissue cells is protein kinase A (PKA). Under general conditions, since an enzyme active site is blocked by a regulatory domain site of protein, a PKA activity is suppressed, but when the concentration of cAMP is increased, cAMP is bound to a regulatory site of PKA to expose an active site, such that the PKA activity is increased. In the present experiment, a change in PKA activity by azelaic acid was measured. The PKA activity was measured using an Enzo PKA kinase activity kit (Cat. #ADI-EKS-390A, Enzo Life Sciences, Korea).

[6] = test system: 3T3-L1 adipocytes in which the Olfr544 gene was knocked-down; assay: Lipolysis (glycerol) in adipocytes in which Olfr544 gene was knocked-down; type: cell-based, mouse; conditions: Olfr544 shRNA transfected adipocytes treated with azelaic acid for 2 hours
Procedure: After the Olfr544 gene was knocked-down in the mouse adipocytes, the adipocytes were treated with azelaic acid, and whether or not a triglyceride hydrolysis effect of azelaic acid was maintained was confirmed.

[7] = test system: 3T3-L1 adipocytes in which the Olfr544 gene was knocked-down; assay: cAMP, PKA activity and HSL phosphorylation in adipocytes in which Olfr544 gene was knocked-down; type: cell-based, mouse; conditions: Olfr544 shRNA transfected adipocytes treated with azelaic acid for 2 hours
From the text: After the Olfr544 gene was knocked-down in the mouse adipocytes, cAMP assay was confirmed by the method described in Example 4, PKA activity was confirmed by the method described in Example 5, and phosphorylation of HSL protein was confirmed by the method described in Example 6.

SMILES: O=C(O)CCCCCCCC(=O)O [azelaic acid, nonanedioic acid]
- phosphorylation of CREB (3T3-L1 adipocytes [1]): rapidly increased
- phosphorylation of HSL (3T3-L1 adipocytes [1]): rapidly increased
- effect on gene expression when the OR2K2 gene was knocked down (HepG2 cells; human liver tissue cell line (HepG2)): disappear
- fatty acid oxidation gene expression (qPCR) (HepG2 cells; liver tissue cells (HepG2) treated with azelaic acid): increased
- concentration of intracellular calcium (3T3-L1 adipocytes [2]): did not affect
- concentration of intracellular cAMP (3T3-L1 adipocytes [3]): significantly increased
- body weight (C57BL/6 mice): reduced body weight
- subcutaneous fat (C57BL/6 mice): reducing subcutaneous fat
- concentration of azelaic acid in a human body [4]: 10 to 50 µM
- concentration of intracellular cholesterol (3T3-L1 adipocytes [5]): no significant change
- PKA activity increased as compared to a control (protein kinase A (PKA)): 113.8%
- concentration of glycerol [6]: no change
- cAMP-PKA-HSL signaling pathway [7]: all inactivated
